Measured values published in the supplement of paper PMC11061612.

Assays:
Assay in all cases: Bliss excess, mean over the matrix (fraction); higher = more synergy
[1] = system: KALS-1 (Glioblastoma)
Outline: (§1)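 Bliss excess equals the observed combination effect minus the expected value EA + EB − EA·EB, where EA and EB are the effects of each agent alone. Combination Emax is the second-highest inhibition within the matrix. Inhibition was scaled from CellTiter-Glo 2.0 luminescence, with 0 set by vehicle wells and 1 by blank wells, after 72 hours of two-drug dosing of cells plated in 1536-well plates.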

[2] = system: TUR (Acute Myeloid Leukemia)
Outline: as §1

[3] = system: SCC-4 (Oral Cavity Carcinoma)
Outline: as §1

[4] = system: LCLC-103H (Non-Small Cell Lung Carcinoma)
Outline: as §1

[5] = system: MOLT-13 (T-Lymphoblastic Leukemia)
Outline: as §1

[6] = system: MDA-MB-415 (Breast Carcinoma)
Outline: as §1

[7] = system: COR-L88 (Small Cell Lung Carcinoma)
Outline: as §1

[8] = system: P30-OHK (B-Lymphoblastic Leukemia)
Outline: as §1

[9] = system: SKG-IIIa (Cervical Carcinoma)
Outline: as §1

[10] = system: NCI-H1963 (Small Cell Lung Carcinoma)
Outline: as §1

[11] = system: T47D (Breast Carcinoma)
Outline: as §1

[12] = system: CPC-N (Small Cell Lung Carcinoma)
Outline: as §1

[13] = system: HT-1080 (Other Solid Carcinomas)
Outline: as §1

[14] = system: BHT-101 (Thyroid Gland Carcinoma)
Outline: as §1

[15] = system: SNU-C2B (Colorectal Carcinoma)
Outline: as §1

[16] = system: PA-TU-8988T (Pancreatic Carcinoma)
Outline: as §1

[17] = system: C-33-A (Cervical Carcinoma)
Outline: as §1

[18] = system: MOLP-8 (Plasma Cell Myeloma)
Outline: as §1

[19] = system: WM35 (Melanoma)
Outline: as §1

[20] = system: SK-N-SH (Neuroblastoma)
Outline: as §1

Row | SMILES | Bliss excess [1] | Bliss excess [2] | Bliss excess [3] | Bliss excess [4] | Bliss excess [5] | Bliss excess [6] | Bliss excess [7] | Bliss excess [8] | Bliss excess [9] | Bliss excess [10] | Bliss excess [11] | Bliss excess [12] | Bliss excess [13] | Bliss excess [14] | Bliss excess [15] | Bliss excess [16] | Bliss excess [17] | Bliss excess [18] | Bliss excess [19] | Bliss excess [20]
1 | CN(C)CCCOc1ccc(-c2ccc3ncc4c(c3c2)n(C2CCOCC2)c(=O)n4C)cn1 [AZD0156] + CCN(CCO)CCCOc1ccc2c(Nc3cc(CC(=O)Nc4cccc(F)c4)[nH]n3)ncnc2c1 [AZD2811] (first compound max 1 µM, 7x7, partner max 1 µM) | -0.0245 | 0.0563 | -0.0668 | -0.0395 | 0.0392 | -0.0087 | -0.0279 | -0.0439 | -0.05 | -0.0463 | -0.0062 | 0.0049 | -0.0159 | -0.0273 | -0.0227 | 0.0079 | -0.0142 | -0.0308 | -0.0426 | -0.0133
2 | CN(C)CCCOc1ccc(-c2ccc3ncc4c(c3c2)n(C2CCOCC2)c(=O)n4C)cn1 [AZD0156] + C[C@@H]1COCCN1C2=NC(=NC(=C2)C3(CC3)[S@](=N)(=O)C)C4=C5C=CNC5=NC=C4 [AZD6738] (first compound max 1 µM, 7x7, partner max 10 µM) | -0.0032 | 0.0261 | -0.0071 | -0.0352 | 0.0472 | -0.007 | 0.0772 | 0.0152 | -0.0555 | 0.0086 | -0.0223 | 0.0316 | 0.02 | 0.0222 | 0.0183 | 0.0423 | 0.0157 | 0.0203 | 0.0618 | -0.115
3 | C=CCn1c(=O)c2cnc(Nc3ccc(N4CCN(C)CC4)cc3)nc2n1-c1cccc(C(C)(C)O)n1 [AZD1775] + C[C@@H]1COCCN1C2=NC(=NC(=C2)C3(CC3)[S@](=N)(=O)C)C4=C5C=CNC5=NC=C4 [AZD6738] (first compound max 1 µM, partner max 10 µM) | 0.0058 | 0.0657 | -0.0248 | 0.0108 | 0.0735 | 0.0112 | 0.04 | 0.0928 | -0.0378 | 0.036 | -0.0302 | 0.0072 | 0.0145 | 0.0094 | -0.0212 | 0.0222 | 0.0554 | -0.0064 | 0.0626 | -0.0285
4 | C=CCn1c(=O)c2cnc(Nc3ccc(N4CCN(C)CC4)cc3)nc2n1-c1cccc(C(C)(C)O)n1 [AZD1775] + O=C(c1cc(Cc2n[nH]c(=O)c3ccccc23)ccc1F)N1CCN(C(=O)C2CC2)CC1 [Olaparib] (first compound max 1 µM, partner max 10 µM) | -0.0611 | 0.0029 | -0.0341 | -0.0334 | 0.021 | -0.0482 | -0.0925 | -0.0021 | -0.0648 | -0.0252 | -0.0095 | 0.0183 | -0.0327 | -0.0568 | 0.0056 | -0.0094 | 0.0051 | -0.0294 | -0.0146 | -0.0947
5 | CCN(CCO)CCCOc1ccc2c(Nc3cc(CC(=O)Nc4cccc(F)c4)[nH]n3)ncnc2c1 [AZD2811] + C=CCn1c(=O)c2cnc(Nc3ccc(N4CCN(C)CC4)cc3)nc2n1-c1cccc(C(C)(C)O)n1 [AZD1775] (first compound max 1 µM, partner max 1 µM) | -0.0307 | 0.117 | -0.0024 | 0.0066 | 0.0166 | -0.0152 | -0.0099 | -0.0412 | -0.0142 | -0.0448 | -0.0236 | -0.0239 | 0.025 | 0.0043 | -0.0602 | 0.0311 | 0.0111 | 0.0185 | -0.0098 | -0.0544
6 | CCN(CCO)CCCOc1ccc2c(Nc3cc(CC(=O)Nc4cccc(F)c4)[nH]n3)ncnc2c1 [AZD2811] + C[C@@H]1COCCN1C2=NC(=NC(=C2)C3(CC3)[S@](=N)(=O)C)C4=C5C=CNC5=NC=C4 [AZD6738] (first compound max 1 µM, 7x7, partner max 10 µM) | -0.038 | 0.019 | -0.0707 | -0.119 | -0.0075 | -0.0438 | -0.0598 | -0.0736 | -0.0409 | -0.0777 | -0.0493 | -0.0794 | -0.0375 | -0.0298 | -0.0581 | 0.0002 | -0.0531 | -0.028 | -0.0306 | -0.0358
7 | CCN(CCO)CCCOc1ccc2c(Nc3cc(CC(=O)Nc4cccc(F)c4)[nH]n3)ncnc2c1 [AZD2811] + O=C(c1cc(Cc2n[nH]c(=O)c3ccccc23)ccc1F)N1CCN(C(=O)C2CC2)CC1 [Olaparib] (first compound max 1 µM, 7x7, partner max 10 µM) | 0.0144 | 0.0637 | -0.0447 | -0.0275 | -0.0146 | 0.0059 | -0.0475 | -0.04 | -0.0286 | -0.0623 | 0.005 | -0.0238 | -0.0043 | -0.0193 | -0.014 | 0.0228 | -0.0108 | 0.0384 | 0.0069 | -0.0701
8 | CN(CCO)CC[C@H](CSc1ccccc1)Nc1ccc(S(=O)(=O)NC(=O)c2ccc(N3CCC([C@@H](O)c4ccccc4-c4ccc(Cl)cc4)CC3)cc2)cc1S(=O)(=O)C(F)(F)F [AZD4320] + C1CN(CCC1(C(=O)N[C@@H](CCO)C2=CC=C(C=C2)Cl)N)C3=NC=NC4=C3C=CN4 [Capivasertib] (first compound max 1 µM, 7x7, partner max 3 µM) | -0.0039 | -0.0062 | -0.0454 | -0.0548 | -0.0371 | -0.0284 | 0.0065 | 0.0169 | -0.0318 | 0.0172 | -0.0554 | -0.0158 | -0.0794 | 0.0092 | -0.0305 | -0.0315 | -0.0302 | -0.025 | -0.017 | -0.0363
9 | CN(CCO)CC[C@H](CSc1ccccc1)Nc1ccc(S(=O)(=O)NC(=O)c2ccc(N3CCC([C@@H](O)c4ccccc4-c4ccc(Cl)cc4)CC3)cc2)cc1S(=O)(=O)C(F)(F)F [AZD4320] + C=CCn1c(=O)c2cnc(Nc3ccc(N4CCN(C)CC4)cc3)nc2n1-c1cccc(C(C)(C)O)n1 [AZD1775] (first compound max 1 µM, partner max 1 µM) | 0.0252 | 0.0015 | 0.0838 | 0.0297 | 0.064 | -0.0034 | 0.0578 | 0.141 | 0.0322 | 0.0565 | -0.0509 | 0.0249 | -0.0354 | 0.0142 | -0.0143 | 0.0011 | -0.0246 | 0.0782 | -0.0178 | -0.0141
10 | CN(CCO)CC[C@H](CSc1ccccc1)Nc1ccc(S(=O)(=O)NC(=O)c2ccc(N3CCC([C@@H](O)c4ccccc4-c4ccc(Cl)cc4)CC3)cc2)cc1S(=O)(=O)C(F)(F)F [AZD4320] + CCN(CCO)CCCOc1ccc2c(Nc3cc(CC(=O)Nc4cccc(F)c4)[nH]n3)ncnc2c1 [AZD2811] (first compound max 1 µM, 7x7, partner max 1 µM) | 0.0804 | 0.0393 | 0.0936 | -0.0157 | -0.0204 | 0.0756 | 0.0591 | 0.045 | -0.015 | 0.0054 | -0.0174 | 0.0092 | -0.0046 | -0.0112 | -0.0031 | 0.0239 | -0.0283 | 0.0283 | -0.0084 | -0.143
11 | CN(CCO)CC[C@H](CSc1ccccc1)Nc1ccc(S(=O)(=O)NC(=O)c2ccc(N3CCC([C@@H](O)c4ccccc4-c4ccc(Cl)cc4)CC3)cc2)cc1S(=O)(=O)C(F)(F)F [AZD4320] + CN(C)CCCOc1ccc(-c2ccc3ncc4c(c3c2)n(C2CCOCC2)c(=O)n4C)cn1 [AZD0156] (first compound max 1 µM, 7x7, partner max 1 µM) | -0.0076 | -0.0023 | -0.0341 | -0.0704 | 0.0257 | -0.114 | -0.0161 | 0.0275 | -0.0392 | 0.0708 | -0.0056 | -0.0391 | -0.0895 | -0.0193 | -0.0007 | -0.005 | -0.0302 | 0.0233 | -0.0141 | -0.0439
12 | CN(CCO)CC[C@H](CSc1ccccc1)Nc1ccc(S(=O)(=O)NC(=O)c2ccc(N3CCC([C@@H](O)c4ccccc4-c4ccc(Cl)cc4)CC3)cc2)cc1S(=O)(=O)C(F)(F)F [AZD4320] + C[C@@H]1COCCN1C2=NC(=NC(=C2)C3(CC3)[S@](=N)(=O)C)C4=C5C=CNC5=NC=C4 [AZD6738] (first compound max 1 µM, 7x7, partner max 10 µM) | -0.0784 | -0.014 | -0.0961 | -0.0362 | -0.0057 | -0.0749 | 0.0079 | 0.0653 | -0.0302 | 0.0129 | -0.0566 | 0.0146 | 0.0171 | -0.0067 | -0.0292 | -0.0006 | -0.0158 | 0.0086 | -0.0182 | -0.0586
13 | CN(CCO)CC[C@H](CSc1ccccc1)Nc1ccc(S(=O)(=O)NC(=O)c2ccc(N3CCC([C@@H](O)c4ccccc4-c4ccc(Cl)cc4)CC3)cc2)cc1S(=O)(=O)C(F)(F)F [AZD4320] + C[C@@H](Nc1cc(F)cc(F)c1)c1cc(C(=O)N(C)C)cc2c(=O)cc(N3CCOCC3)oc12 [AZD8186] (first compound max 1 µM, 7x7, partner max 3 µM) | 0.0385 | 0.0019 | -0.0437 | -0.0139 | 0.0093 | 0.0439 | 0.008 | 0.0647 | -0.0066 | 0.0841 | -0.0242 | 0.0273 | -0.0232 | -0.0192 | 0.0342 | -0.005 | -0.0542 | 0.0576 | 0.047 | -0.071
